Laboratory results from paper PMC12131194, “Rational design, synthesis, and evaluation of novel polypharmacological compounds targeting NaV1.5, KV1.5, and K2P channels for atrial fibrillation” (The Journal of Biological Chemistry, 2025).
Like-named read-outs stand apart in the source and are kept apart here.

Tests used:
TASK-1 = tested on: TASK-1; set-up: method as in PMID 21946151; details: HEK-293 cells; ref [38]; read-out: Reported IC50 TASK-1; cited from earlier work
KV1.5 = tested on: KV1.5; set-up: method as in PMID 33817777; details: X. laevis oocytes, ref [15], read-out: Reported IC50 KV1.5, cited from earlier work
NaV1.5 [1] = details: X. laevis oocytes, racemic (R/S) compound; ref [39]; read-out: Reported IC50 NaV1.5; cited from earlier work
h KV1.5 = biological target: T1, h KV1.5 (Homo sapiens, UniProt P22460); assay: TEVC recordings in X. laevis oocytes, KV1.5; assay type: cell-based; details: 100 μM, +40 mV, oocytes, mean ± SD
T1 construct: h KV1.5 (KCNA5, NM_002234); expressed in transfected cells; host or cells: Xenopus laevis oocytes injected with cRNA
Protocol: (§1) The two-electrode voltage clamp (TEVC) technique was used for electrophysiology tests. Channels were expressed in Xenopus laevis oocytes. The initial channel-blocking potential was assessed at 100 μM for the 10 synthesized compounds on TASK-1 and KV1.5 channels.
(§2) To obtain X. laevis oocytes, the frogs were anesthetized with 2 g/L of tricaine methanesulfonate, and the ovarian lobes were mechanically separated with forceps. The oocytes were incubated for 120 min in an OR2 solution containing in mM: NaCl 82.5, KCl 2, MgCl2 1, HEPES 5 (pH 7.5) supplemented with 2 mg/ml of collagenase II (Sigma) to remove residual connective tissue and obtain individual oocytes. Subsequently, the oocytes were washed with a ND96 solution containing in mM: NaCl 96, KCl 2, CaCl2 1.8, MgCl2 1, HEPES 5 (pH 7.5, adjusted with NaOH) and stored at 18 °C in ND96 solution supplemented with 1 ml of gentamicin (50 mg/L), sodium pyruvate (275 mg/L) and (90 mg/L) theophylline (inhibits further oocyte maturation) before and after RNA injection.
(§3) In order to overexpress the channel in the oocyte, each of the channels to be measured was subcloned (complementary DNA (cDNA); human TASK-1 (KCNK3, NM_002246), h KV1.5 (KCNA5, NM_002234), h NaV1.5 (hH1, M77235), TASK-4/TALK-2 (KCNK17, NM_AF358910), TREK-1 (KCNK2, AF004711) and Kir2.1 (KCNJ2, NM_017296) into pSGEM, pBF1 or pSP64 expression vector, and the cDNA was linearized with NheI or MluI. Complementary RNA (cRNA) was synthesized with the mMESSAGE mMACHINE-Kit (Ambion). The quality of the cRNA was tested on an agarose gel by electrophoresis. cRNA was quantified using a UV-Vis spectrophotometer (NanoDrop 2000). Subsequently, the channel was transfected in the oocytes in stages V and VI, for which […] (TASK-1, KV1.5 or TREK-1), 10 ng (NaV1.5 or TASK-4) o 2.5 ng (Kir2.1) per oocyte of cRNA was injected with a NanojectII microinjector (Drummond Scientific). The oocytes were stored in 24-well plates for 24 to 48 h at 18 °C. After this time, the overexpression of each channel was monitored through electrophysiology.
(§4) Two-electrode voltage clamp measurements were performed 24 or 48 h after cRNA injection at room temperature (20–22 °C) in ND96 recording solution with a TurboTEC-10CD (npi) amplifier and a Digidata 1550B (for TASK-1 and KV1.5) and 1440A (for NaV1.5) A/D converter from Axon Instruments. Micropipettes were fabricated from GB 150 TF-8P borosilicate glass capillaries (Science Products) elongated in a DMZ-Universal Puller (Zeitz, Germany). […] ND96 was used as bath solution. Data acquisition was performed using Clampex 10 software (Axon Instruments), and data were analyzed with ClampFit 10 (Axon Instruments) and Origin 7 (Origin Lab Corporation).
(§5) For compound inhibition testing, from a holding potential of −80 mV a first test pulse to 0 mV of 1 s duration was followed by a repolarization step at −80 mV for 1 s, directly followed by another 1 s test pulse at +40 mV. The sweep time interval was 10 s for KV1.5 and TASK-1 channels. For the NaV1.5 channel, the block was analyzed with voltage steps from a holding potential of −80 mV. A first depolarizing pulse to −30 mV of 50 ms duration was applied, followed by a 5 ms step to −80 mV. The sweep time interval was 5 s. The compounds were applied at different concentrations to determine the half-maximal inhibitory concentration (IC50), using a fit to the Hill equation.
(§6) To test for a putative voltage-dependence of the block by the compound 6f in KV1.5, a 1.5 s voltage step protocol from −80 to +80 mV with +20 mV increments was used. The holding potential was −80 mV and the sweep time interval was 10 s. Currents were analyzed at the end of the voltage pulse. For TASK-1, voltage-dependence of block was probed using a high-potassium solution (KD96) containing in mM: KCl 96, NaCl 2, CaCl2 1.8, MgCl2 1, HEPES 5, (pH 7.5, adjusted with KOH). From a holding potential of 0 mV, voltage was stepped from −80 mV to +80 mV for 1.5 s in +20 mV steps every 10 s. […]

human TASK-1 = human TASK-1 (Homo sapiens, UniProt O14649); assay: TEVC recordings in X. laevis oocytes, TASK-1; assay type: cell-based; set-up: human TASK-1 (KCNK3, NM_002246); expressed in transfected cells; host or cells: Xenopus laevis oocytes injected with cRNA; details: 100 μM, +40 mV, oocytes, mean ± SD
Protocol: as §1, §2, §3, §4, §5, §6

h NaV1.5 = biological target: T2, h NaV1.5 (Homo sapiens, UniProt Q14524, R1027Q); assay: TEVC recordings in X. laevis oocytes, NaV1.5; assay type: cell-based; details: 100 μM, −30 mV, oocytes, mean ± SD
T2 construct: expressed in transfected cells; host or cells: Xenopus laevis oocytes injected with cRNA
Protocol: as §2, §3, §4, §5
To test for a putative voltage-dependence of the block by the compound 6f in KV1.5, a 1.5 s voltage step protocol from −80 to +80 mV with +20 mV increments was used. The holding potential was −80 mV and the sweep time interval was 10 s. Currents were analyzed at the end of the voltage pulse. For TASK-1, voltage-dependence of block was probed using a high-potassium solution (KD96) containing in mM: KCl 96, NaCl 2, CaCl2 1.8, MgCl2 1, HEPES 5, (pH 7.5, adjusted with KOH). From a holding potential of 0 mV, voltage was stepped from −80 mV to +80 mV for 1.5 s in +20 mV steps every 10 s. To determine the current-voltage relationship of the NaV1.5 channel, the voltage was stepped for 50 ms from a holding potential of −80 mV to −70 mV to +80 mV in +10 mV increments every 5 s. The peak currents were subsequently plotted against the respective applied voltages.

human erythrocytes = assay: Hemolysis assay; assay type: cell-based; details: 0.2–400 μM, 2 hours, 37 °C
Protocol: To evaluate cytotoxicity, the hemolysis of the compounds with the best simultaneous blocking activity on the channels (6e, 6f, 7a, 7b and 7c) was considered, modifying the protocol of Chen 2018 ([112]). Thus, non-heparinized human blood was collected. Erythrocytes were washed three times in 1× PBS (phosphate-buffered saline: NaCl, 8 g/L; KCl, 0.2 g/L; Na2HPO4, 1.44 g/L; and KH2PO4, 0.24 g/L; pH 7.4) and then used to prepare a 3% red blood cell (RBC) suspension. The assay was performed in a 96-well polypropylene microplate.
The compounds were prepared from 200 mM stock solutions in DMSO. Subsequently, 1:2 serial dilutions were made in 1× PBS, with final concentrations from 400 to 0.2 μM to a final volume of 200 μl per well. The microplate was incubated for 2 h at 37 °C and centrifuged at 3400 rpm for 5 min. Finally, 100 μl of the supernatant was transferred and measured in a 96-well plate. Hemoglobin release was monitored by photometric analysis of the supernatant at 540 nm using an Epoch Microplate Spectrophotometer (BioTek Instruments, Inc. Winooski, Vermont 05404-0998).
A 3% RBC suspension treated with Tween 20 was used to obtain total lysis as a positive control. Other authors who performed hemolysis assays have also considered this and other detergents, such as Triton X-100 and Sodium Dodecyl Sulfate (SDS) as positive controls ([113], [114], [115], [116]). The negative control was a suspension of red blood cells with PBS. Each experiment was performed in triplicate at all concentrations used. The percentage of hemolysis was calculated with the following (Equation 1), where Ad: absorbance of the dilution, A0: absorbance of the blank (RBC suspension with PBS), and At: total absorbance (positive control).(1) %hemolysis=Ad−A0/At−A0x100

NaV1.5 [2] = details: HEK-293 cells, racemic (R/S) compound, NaV1.5 open state; ref [40]; read-out: Reported IC50 NaV1.5; cited from earlier work
virtual atria with AF = tested on: virtual atria with AF; set-up: method as in PMID 37475475, PMID 38870348; details: ref [74], [75]; cited from earlier work

T1 sequence (P22460 whole entry): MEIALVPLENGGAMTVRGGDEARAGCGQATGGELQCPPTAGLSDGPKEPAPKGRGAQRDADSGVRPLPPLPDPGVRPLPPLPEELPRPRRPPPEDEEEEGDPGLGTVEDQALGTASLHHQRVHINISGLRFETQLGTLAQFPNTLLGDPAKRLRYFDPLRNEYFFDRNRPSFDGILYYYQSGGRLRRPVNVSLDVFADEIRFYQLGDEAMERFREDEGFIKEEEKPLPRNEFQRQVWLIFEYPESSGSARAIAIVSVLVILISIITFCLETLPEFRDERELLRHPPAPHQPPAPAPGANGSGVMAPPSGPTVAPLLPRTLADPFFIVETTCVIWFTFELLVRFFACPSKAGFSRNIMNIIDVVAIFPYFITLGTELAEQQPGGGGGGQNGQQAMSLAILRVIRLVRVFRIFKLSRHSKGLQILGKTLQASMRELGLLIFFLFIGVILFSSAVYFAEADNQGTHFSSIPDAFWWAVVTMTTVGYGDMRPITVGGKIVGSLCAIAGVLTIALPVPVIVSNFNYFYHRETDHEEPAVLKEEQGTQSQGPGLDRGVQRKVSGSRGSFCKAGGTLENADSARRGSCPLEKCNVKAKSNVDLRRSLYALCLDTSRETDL
T2 sequence (Q14524 whole entry R1027Q): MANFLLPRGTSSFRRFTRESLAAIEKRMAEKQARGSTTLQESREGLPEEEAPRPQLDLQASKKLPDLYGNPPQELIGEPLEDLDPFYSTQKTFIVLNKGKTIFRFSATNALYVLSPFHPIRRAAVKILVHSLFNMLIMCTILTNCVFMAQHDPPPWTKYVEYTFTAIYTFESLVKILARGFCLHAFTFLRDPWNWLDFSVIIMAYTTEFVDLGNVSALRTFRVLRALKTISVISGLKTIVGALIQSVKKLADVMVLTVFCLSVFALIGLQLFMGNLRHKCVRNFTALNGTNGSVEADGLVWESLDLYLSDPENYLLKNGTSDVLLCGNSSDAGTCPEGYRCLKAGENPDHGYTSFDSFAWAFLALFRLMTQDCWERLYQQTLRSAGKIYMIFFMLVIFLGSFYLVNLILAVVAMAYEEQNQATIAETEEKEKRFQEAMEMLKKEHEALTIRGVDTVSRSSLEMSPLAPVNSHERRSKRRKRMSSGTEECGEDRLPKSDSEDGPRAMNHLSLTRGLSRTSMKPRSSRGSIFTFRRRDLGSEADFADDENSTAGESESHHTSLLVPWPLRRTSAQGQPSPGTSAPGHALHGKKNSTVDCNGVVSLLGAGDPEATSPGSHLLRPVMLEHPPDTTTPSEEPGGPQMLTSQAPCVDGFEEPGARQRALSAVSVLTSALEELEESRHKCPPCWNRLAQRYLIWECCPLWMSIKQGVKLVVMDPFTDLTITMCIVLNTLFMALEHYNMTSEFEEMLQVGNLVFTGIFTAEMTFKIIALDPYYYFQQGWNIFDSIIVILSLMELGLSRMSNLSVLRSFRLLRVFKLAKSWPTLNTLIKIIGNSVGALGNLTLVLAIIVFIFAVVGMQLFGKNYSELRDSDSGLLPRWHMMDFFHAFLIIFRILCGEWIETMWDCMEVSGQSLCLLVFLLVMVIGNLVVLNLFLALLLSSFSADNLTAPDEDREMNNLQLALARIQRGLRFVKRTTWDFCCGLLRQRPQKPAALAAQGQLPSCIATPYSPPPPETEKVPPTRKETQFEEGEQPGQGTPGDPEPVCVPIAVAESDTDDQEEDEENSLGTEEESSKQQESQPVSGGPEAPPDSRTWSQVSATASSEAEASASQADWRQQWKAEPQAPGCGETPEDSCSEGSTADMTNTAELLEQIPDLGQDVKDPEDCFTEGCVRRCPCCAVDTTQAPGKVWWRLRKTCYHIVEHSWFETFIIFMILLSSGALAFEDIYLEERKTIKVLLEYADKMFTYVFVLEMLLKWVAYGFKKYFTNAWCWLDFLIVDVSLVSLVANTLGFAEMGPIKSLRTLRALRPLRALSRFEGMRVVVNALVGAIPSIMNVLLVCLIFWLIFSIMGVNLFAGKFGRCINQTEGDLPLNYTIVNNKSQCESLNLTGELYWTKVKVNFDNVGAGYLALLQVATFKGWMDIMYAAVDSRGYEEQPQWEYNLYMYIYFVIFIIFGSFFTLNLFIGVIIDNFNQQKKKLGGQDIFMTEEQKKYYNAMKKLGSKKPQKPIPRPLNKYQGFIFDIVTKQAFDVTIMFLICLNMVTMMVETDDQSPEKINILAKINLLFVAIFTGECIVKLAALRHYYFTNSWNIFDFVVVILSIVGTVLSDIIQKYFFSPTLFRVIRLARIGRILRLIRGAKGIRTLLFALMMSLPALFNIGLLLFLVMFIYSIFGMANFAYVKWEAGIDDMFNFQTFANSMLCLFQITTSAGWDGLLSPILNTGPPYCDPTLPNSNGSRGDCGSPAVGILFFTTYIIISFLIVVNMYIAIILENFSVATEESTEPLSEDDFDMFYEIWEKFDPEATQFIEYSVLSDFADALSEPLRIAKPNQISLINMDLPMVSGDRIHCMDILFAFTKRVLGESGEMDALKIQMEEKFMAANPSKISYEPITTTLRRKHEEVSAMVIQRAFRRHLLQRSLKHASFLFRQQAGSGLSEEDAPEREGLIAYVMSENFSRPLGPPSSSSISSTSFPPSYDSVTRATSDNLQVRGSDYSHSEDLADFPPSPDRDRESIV
human TASK-1, sequence (O14649 whole entry): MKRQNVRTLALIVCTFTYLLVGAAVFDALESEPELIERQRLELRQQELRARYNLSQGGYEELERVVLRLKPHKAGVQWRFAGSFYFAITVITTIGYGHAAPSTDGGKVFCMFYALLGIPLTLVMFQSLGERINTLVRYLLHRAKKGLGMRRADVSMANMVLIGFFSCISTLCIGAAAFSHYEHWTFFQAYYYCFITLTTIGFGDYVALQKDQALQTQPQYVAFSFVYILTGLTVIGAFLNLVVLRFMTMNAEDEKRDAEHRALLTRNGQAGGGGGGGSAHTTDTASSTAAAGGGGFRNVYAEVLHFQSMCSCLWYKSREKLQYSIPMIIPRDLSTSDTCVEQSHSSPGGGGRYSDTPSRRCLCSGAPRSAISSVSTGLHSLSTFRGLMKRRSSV

For `CCCCN1CCCCC1C(=O)Nc1c(C)cccc1C` (stereo not shown) [Bupivacaine, bupivacaine], the IC50 (TASK-1) is listed as 12.1 µM, the IC50 (KV1.5; racemic (R/S) compound) is listed as 31 µM and the IC50 (NaV1.5 [1]) is listed as 4.5 µM.
In the case of `CCCCN(CCCC)CC(=O)Nc1ccccc1C` [Compound 6a, 2-(dibutylamine)-N-(o-tolyl)acetamide], the inhibition at 100 µM (h KV1.5) is reported as 12.3 to 35.7% and the inhibition at 100 µM (human TASK-1) is reported as 88.3 ± 6.57%.
With `CCCCN(CCCC)CC(=O)Nc1ccccc1CC` [Compound 6b, 2-(dibutylamine)-N-(2-ethylphenyl)acetamide] the inhibition at 100 µM (h KV1.5) was 12.3 to 35.7%.
Work on `CCCCN(CCCC)CC(=O)Nc1cc(C)cc(C)c1` [Compound 6c, 2-(dibutylamine)-N-(3,5-dimethylphenyl)acetamide] yielded an inhibition at 100 µM (h KV1.5) of 12.3 to 35.7%.
In the case of `Cc1cc(C)cc(NC(=O)CN(C(C)C)C(C)C)c1` [Compound 6d, 2-(diisopropylamine)-N-(3,5-dimetylphenyl)acetamide], the inhibition at 100 µM (h KV1.5) is reported as 12.3 ± 6.01%.
For `CCCCN(CCCC)CC(=O)Nc1ccc(OC)cc1` [Compound 6e, 2-(dibutylamine)-N-(4-methoxiphenyl)acetamide], the inhibition at 100 µM (h KV1.5) was 42.2 ± 21.2%, the inhibition at 100 µM (h NaV1.5) was 81.2 ± 19% and the Hemolytic effect (human erythrocytes) was “no hemolytic effect”.
In the case of `CCCCN(CCCC)C(C)C(=O)Nc1ccc(OC)cc1` (stereo not shown) [Compound 7a, 2-(dibutylamine)-N-(4-methoxiphenyl)propanamide], the inhibition at 100 µM (h KV1.5) is reported as 38 ± 16.1%, the inhibition at 100 µM (h NaV1.5) is reported as 11.9 ± 15% and the Hemolytic effect (human erythrocytes) is reported as “no hemolytic effect”.
In the case of `CCCCN(CCCC)C(C)C(=O)Nc1ccccc1C` (stereo not shown) [Compound 7b, 2-(dibutylamine)-N-(o-tolyl)propanamide], the inhibition at 100 µM (h KV1.5) is reported as 36.9 ± 13.6%, the inhibition at 100 µM (h NaV1.5) is reported as 58.9 ± 21.2% and the Hemolytic effect (human erythrocytes) is reported as “no hemolytic effect”.
For `CCCCN(CCCC)C(C)C(=O)Nc1cccc2ccccc12` (stereo not shown) [Compound 7c, 2-(dibutylamine)-N-(naphthalen-1-yl)propanamide], the inhibition at 100 µM (h KV1.5) was 35.7 ± 18.3%, the inhibition at 100 µM (h NaV1.5) was 31.1 ± 13.7% and the Hemolytic effect (human erythrocytes) was “no hemolytic effect”. For the same compound, the inhibition at 100 µM (human TASK-1) was 89.3 ± 6.56%.
Work on `CCCCN(CCCC)C(C)C(=O)Nc1cc(C)cc(C)c1` (stereo not shown) [Compound 7d, 2-(dibutylamine)-N-(3,5-dimetilphenyl)propanamide] yielded an inhibition at 100 µM (h KV1.5) of 12.3 to 35.7%.
For `CCCN1CCCC[C@H]1C(=O)Nc1c(C)cccc1C` [Ropivacaine, ropivacaine], the IC50 (TASK-1) is listed as 17.6 µM and the IC50 (NaV1.5 [2]) is listed as 322 µM.
For `CCCCc1oc2ccccc2c1C(=O)c1cc(I)c(OCCN(CC)CC)c(I)c1` [amiodarone], the “Cardioversion efficacy in other simulation studies” value (“Cardioversion efficacy” for short) (virtual atria with AF) is given as 57–80%.
In the case of `O=C(NCC1CCCCN1)c1cc(OCC(F)(F)F)ccc1OCC(F)(F)F` (stereo not shown) [flecainide], the “Cardioversion efficacy” value (virtual atria with AF) is given as 48–70%.
For `CCCN1CCCC[C@H]1C(=O)Nc1c(C)cccc1C` [ropivacaineS], the IC50 (KV1.5; S enantiomer) is given as 129 µM.
For `COc1ccc(CCO[C@@H]2CCCC[C@H]2N2CC[C@@H](O)C2)cc1OC` [vernakalant], the “Cardioversion efficacy” value (virtual atria with AF) is given as 42–57%.
